Results reported in US20110021471A1, “REDUCING Abeta42 LEVELS AND Abeta AGGREGATION” (priority 2007, published 2011).
Read-outs that look alike come from different tables or passages of the source.

Legend:
APP(C100)-Flag = molecular target: T1, APP(C100)-Flag (Homo sapiens, UniProt P05067); test: Photoaffinity labelling of APP(C100)-Flag and competition; type: binding; conditions: for competition of Fen-B labeling of C100Flag: Fen-B 10 μM, C100Flag 1 μM, competitor 100 μM
T1 construct: APP(C100)-Flag, comprising the 99 C-terminal residues of APP plus a methionine at the N-terminus; added methionine (N)
T1 sequence (P05067 672-770 limits assumed): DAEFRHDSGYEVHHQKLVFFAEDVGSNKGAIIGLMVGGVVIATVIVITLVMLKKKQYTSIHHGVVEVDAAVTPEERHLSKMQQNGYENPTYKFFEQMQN
Description: (§1) FIG. 1. […] The top panel is for anti-biotin staining; the middle panel is for anti-FLAG staining; and the bottom panel is an overlay of anti-biotin (red and anti-Flag green, LiCor Odyssey imaging). (E) Same samples as in D, but analyzed using an ELISA. Following crosslinking, C100Flag and N100 Flag were captured using anti-FLAG plate, and biotin incorporation was measured using streptavidin-HRP. […] Fen-B (50 μM) was crosslinked to Aβ (10 μM). Biotin labeling was measured following capture with an anti-Aβ1-16 antibody and detection with streptavidin-HRP.
(§2) Photoaffinity labelling. All experiments used the following general protocol. Samples (recombinant or synthetic peptides, cell lysates and membrane preparations) were exposed in borosilicate test tubes to ultraviolet light (350 nm) in a Rayonet Photoreactor R100 (RPR-3500 lamps, Southern New England Ultra Violet Company) in a cold room (4° C.) for 30 minutes or as otherwise noted. Crosslinked samples were analyzed by ELISA for biotin incorporation, or analyzed directly by SDS-PAGE (Criterion-XT, Bio-Rad), or after precipitation with streptavidin ultralink plus beads (Pierce). After immunblotting, proteins were detected using chemiluminesence (ECL Plus, GEHealthcare) or near-infrared fluorescence (LiCor Odyssey). Full-length APP and APP CTFs (CTF83, CTF99) were detected with CT20, a rabbit polyclonal antibody against the C-terminus of APP. Biotin was detected with an affinity-purified rabbit polyclonal antibody (Bethyl). Cell-based screens for amyloid-β modulation. Human H4 neuroglioma cells (American Type Culture Collection, ATCC) expressing wild-type APP695 protein or CTF105 fused to secreted alkaline phosphatase which is efficiently processed to APP CTFs (CTF83, CTF99) and produce high levels of amyloid-β, were used for the cell-based screens as previously described. Cells were incubated for 5-6 hours in the presence of the various compounds in Opti-Mem culture medium containing 1% fetal bovine serum. Compounds were dissolved in dimethylsulphoxide (DMSO; 0.5% final concentration) and diluted 200-fold. Media was analyzed for various amyloid-β species (40, 42 and total) using ELISAs as described herein. The EC50 values for changes in amyloid-β species were calculated by fitting sigmoid dose-response curves using nonlinear regression in Prism (GraphPad) and are shown as values±s.e.m. Statistical analysis. Data are presented as either percentage control or mean±s.e.m. Results were analyzed using Prism (Graph Pad) with t-tests or one-way analysis of variance analyses (ANOVAs) with Dunnett's post-hoc correction for comparison of multiple samples to a control. Statistical significance is shown as P,0.05 (one asterisk), P,0.01 (two asterisks) or P,0.001 (three asterisks).
The ability of a purified, recombinant Flag-tagged γ-secretase substrate derived from APP (APP(C100)-Flag, comprising the 99 C-terminal residues of APP plus a methionine at the N-terminus) to be labeled by Fen-B and Flurbi-BpB was tested.

[1] = molecular target: amyloid-β peptides (Aβ1-40, Aβ1-36, Aβ1-28, Flag-Aβ25-36) (Homo sapiens, UniProt P05067); test: Photoaffinity labelling of amyloid-β peptides; type: binding
Description: as §1, §2
Because the putative binding region of GSMs is also found in full-length APP, labeling of both APP fragments in cells was assayed.

H4Bri-C99 (CTF-3) = system: H4Bri-C99 (CTF-3)
Description: FIG. 6. […] Parent GSMs and biotin tagged photoactivatable GSMs were evaluated for their effects on Aβ secreted from H4Bri-C99 (CTF-3). Cells were treated with compounds for 6 hours and Aβ measured by ELISA. […] Changes in Aβ (percent control)±s.e.m., n=3.
as §2

APP-CTF = molecular target: T2, APP-CTF (Homo sapiens, UniProt P05067); test: Photoaffinity labelling of APP and APP CTF in H4 cell membrane fractions and competition; type: binding; conditions: for competition of APP-CTF labeling by Fen-B and Flurbi-BpB: photoprobe 25 μM, competitor 200 μM
T2 construct: this protein was designated α-secretase-derived APP CTF (CTF83) on the basis of molecular weight; expressed in transfected cells
T2 sequence (P05067 688-770 limits assumed): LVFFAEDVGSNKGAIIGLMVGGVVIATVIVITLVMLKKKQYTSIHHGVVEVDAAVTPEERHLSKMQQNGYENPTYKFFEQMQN
Description: Photoaffinity labelling. All experiments used the following general protocol. Samples (recombinant or synthetic peptides, cell lysates and membrane preparations) were exposed in borosilicate test tubes to ultraviolet light (350 nm) in a Rayonet Photoreactor R100 (RPR-3500 lamps, Southern New England Ultra Violet Company) in a cold room (4° C.) for 30 minutes or as otherwise noted. Crosslinked samples were analyzed by ELISA for biotin incorporation, or analyzed directly by SDS-PAGE (Criterion-XT, Bio-Rad), or after precipitation with streptavidin ultralink plus beads (Pierce). After immunblotting, proteins were detected using chemiluminesence (ECL Plus, GEHealthcare) or near-infrared fluorescence (LiCor Odyssey). Full-length APP and APP CTFs (CTF83, CTF99) were detected with CT20, a rabbit polyclonal antibody against the C-terminus of APP. Biotin was detected with an affinity-purified rabbit polyclonal antibody (Bethyl). Cell-based screens for amyloid-β modulation.

γ-secretase [2] = molecular target: T3, γ-secretase (Homo sapiens, UniProt P49768); test: Cell-free in vitro γ-secretase assay; type: biochemical; conditions: for Aβ40 in cell-free γ-secretase assay / total Aβ production in cell-free γ-secretase assay: increasing doses
Description: FIG. 5. Fenofibrate-Biotin (Fen-B) is an Aβ42 raising GSM that labels cell-derived APP-CTF. (A) The effects of fenofibrate and fenofibrate-biotin (Fen-B) on Aβ production were investigated in a cell-free in vitro γ-secretase assay performed as described in the methods. […] Percent control Aβ species±s.e.m., n=2. (B) Fen-B labels APP-CTFs from cells lysates. CHAPSO solubilized membrane fractions from H4 APP-CTF-105-AP cells were irradiated (350 nm) in the presence of Fen-B (50 μM) for 30 minutes. Biotinylated material was precipitated with streptavidin overnight (SAv). Beads were washed (3×) and then incubated with XT sample buffer, heated to 95° C., run on 12% Criterion XT gels, and transferred to nitrocellulose membranes. Blots were probed for biotin (Bethyl) and APP (CT20). Excess drug (Fen-B) and unlableled APP-CTF is detected in the flow-through from the beads (unbound lane). Biotin bound to streptavdin (SAv) is detected by the anti-biotin antibody. APP-CTF-83 is pulled down in lane 2 and is reactive with anti-biotin and anti-APP (CT20).
Congo red (CR) and chrysamine G (CG), two of the most well characterized amyloid-β dyes, act as GSMs in cell-free γ-secretase assays.

H4 APPwt cells = test: Immunoprecipitation-mass spectrometry of media from H4 APPwt cells; type: cell-based, human
Description: FIG. 14. Amyloid binding compounds alter the cleavage of Aβ similar to other established γ-secretase modulators Immunoprecipitation-mass spectrometry studies were conducted on media from H4 APPwt cells grown in the presence of test compounds for 16 hours. Conditions were: control (DMSO, 0.5%), sulindac sulfide (SS; 25 μM), chrysamine g (CG; 25 μM), and X-34 (25 μM). SS was included as a control GSM known to reduce Aβ42 and increase Aβ38. Spectra shown are representative of two experiments with 2-3 replicates each. Identified Aβ peptides based on calculated mass (m/z) are indicated above the peaks.

[3] = system: Human H4 neuroglioma cells expressing wild-type APP695 protein or CTF105; test: Cell-based screens for amyloid-β modulation (H4 cells, ELISA); conditions: for Aβ42 levels: H4 cells expressing APP
Description: Photoaffinity labelling. All experiments used the following general protocol. […] Cell-based screens for amyloid-β modulation. […] Statistical analysis.

γ-secretase [4] = molecular target: T3, γ-secretase; test: GSM activity of compounds that bind Aβ or Aβ amyloid (cell-based or cell-free γ-secretase assays, FIG. 12); conditions: two doses (10 and 100 μM)
Description: A literature search was performed to identify compounds reported to bind to the Aβ peptide directly or amyloid. These candidates were initially tested in cell-based assays or cell-free in vitro γ-secretase assays at two doses (10 and 100 μM).
Finally, X-34 was tested for its ability to modulate Aβ42 amounts in an APP transgenic mouse (Tg2576).

CC(C(=O)O)c1ccc(-c2ccc(NC(=O)COc3ccc(C(=O)c4ccc(OCC(=O)NCCNC(=O)CCCC[C@H]5SC[C@H]6NC(=O)N[C@H]65)cc4)cc3)cc2)c(F)c1 (stereo in doubt) [Flurbi-BpB, 2-(2-fluoro-4′-(2-(4-(4-(2-oxo-2-(2-(5-((3aR,4R,6aS)-2-oxohexahydro-1H-thieno[3,4-d]imidazol-4 yl)pentanamido)ethylamino)ethoxy)benzoyl)phenoxy)acetamido)biphenyl-4-yl)propanoic acid]
labeling of APP(C100)-Flag (APP(C100)-Flag): label a recombinant APP c-secretase substrate (APP(C100)-Flag) with similar potency | labeling of Aβ1-36 [1]: labeled | labeling of Flag-tagged Aβ25-36 [1]: preferentially label | Aβ42 (direction of change) (H4Bri-C99 (CTF-3); 6 hours): lowered Aβ42 | labeling of full-length APP and APP CTFs (APP-CTF; microsomal membrane fractions from H4 cells expressing wild-type APP): labeled full-length APP and APP CTFs

O=C(CCCC[C@H]1SC[C@H]2NC(=O)N[C@H]21)NCCNC(=O)COc1ccc(C(=O)c2ccccc2)cc1 [BpB, N-(2-(2-(4-benzoylphenoxy)acetamido)ethyl)-5-((3aR,4R,6aS)-2-oxohexahydro-1Hthieno[3,4-d]imidazol-4-yl)pentanamide]
labeling of Aβ1-36 [1]: minor labelling | Aβ42 (direction of change) (H4Bri-C99 (CTF-3); 6 hours): increased Aβ42

CC1=C(CC(=O)O)c2cc(F)ccc2/C1=C\c1ccc(S(C)(=O)=O)cc1 [sulindac sulfone]
competition of Fen-B labeling of C100Flag (APP(C100)-Flag): not

O=C(O)c1cc(/N=N/c2ccc(-c3ccc(/N=N/c4ccc(O)c(C(=O)O)c4)cc3)cc2)ccc1O [Chrysamine G]
Aβ42 in cell-free γ-secretase assay (γ-secretase [2]): lowered Aβ42 selectively | Aβ40 in cell-free γ-secretase assay (γ-secretase [2]): lowered Aβ40 at higher doses | total Aβ production in cell-free γ-secretase assay (γ-secretase [2]): without decreasing total Aβ production | Aβ42 in cell-free γ-secretase assay (γ-secretase [2]; listed as CG): lowered Aβ42 levels | shorter amyloid-β (IP-MS) (H4 APPwt cells): increased amounts of shorter amyloid-β | Aβ33 levels (IP-MS) (H4 APPwt cells; 25 μM, 16 hours): raise Aβ33 levels more effectively than SS | levels of Aβ42 (IP-MS) (H4 APPwt cells; 25 μM, 16 hours): consistently decrease levels of Aβ42 | Aβ42 levels [3]: decrease

O=C(O)CCCC[C@@H]1SC[C@@H]2NC(=O)N[C@@H]21 [Biotin]
Aβ levels (H4Bri-C99 (CTF-3); 6 hours): no effect

COc1ccc2[nH]cc(CCNC(C)=O)c2c1 [melatonin]
GSM activity (γ-secretase [4]): did not act as GSMs

CC(=O)Oc1ccccc1C(=O)O [aspirin]
competition of Fen-B labeling of C100Flag (APP(C100)-Flag): did not compete

CSc1ccc(/C=C2/C(C)=C(CC(=O)O)c3cc(F)ccc32)cc1 [sulindac sulfide]
Aβ42 in cell-free γ-secretase assay (γ-secretase [2]): lowered Aβ42 levels | Aβ40 in cell-free γ-secretase assay (γ-secretase [2]): lowered Aβ40 at higher doses | total Aβ production in cell-free γ-secretase assay (γ-secretase [2]): without decreasing total Aβ production | levels of Aβ42 (IP-MS) (H4 APPwt cells; 25 μM, 16 hours): consistently decrease levels of Aβ42 | competition of APP-CTF labeling by Fen-B and Flurbi-BpB (APP-CTF): decreases labeling of APP-CTF | competition of FL-APP and APP CTF labeling by Fen-B and Flurbi-BpB (APP-CTF; photoprobes 50 μM, data not shown): prevents labeling of FL-APP and APP CTF

Clc1ccc(C(c2ccc(Cl)cc2)n2cc[n+](CC(OCc3ccc(Cl)cc3Cl)c3ccc(Cl)cc3Cl)c2)cc1 (centres unmarked) [calmidazolium]
GSM activity (γ-secretase [4]): Aβ42-raising

CC(C)OC(=O)C(C)(C)Oc1ccc(C(=O)c2ccc(Cl)cc2)cc1 [fenofibrate]
Aβ42 increase (H4Bri-C99 (CTF-3); 33 μM, 6 hours): 300% | Toxicity, based on cell morphology and XTT assay (H4Bri-C99 (CTF-3); human, 6 h): noted at higher concentrations (150, 200 μM)

CNc1ccc(-c2nc3ccccc3s2)cc1 [BTA-1]
GSM activity (γ-secretase [4]): did not act as GSMs

Nc1c(/N=N/c2ccc(-c3ccc(/N=N/c4cc(S(=O)(=O)O)c5ccccc5c4N)cc3)cc2)cc(S(=O)(=O)O)c2ccccc12 [Congo red]
Aβ42 in cell-free γ-secretase assay (γ-secretase [2]): lowered Aβ42 selectively | total Aβ production in cell-free γ-secretase assay (γ-secretase [2]): without decreasing total Aβ production | Aβ42 in cell-free γ-secretase assay (γ-secretase [2]; listed as CR): lowered Aβ42 levels

Aβ28-36: synthetic peptide of the putative GSM binding region (KGAIIGLMV; Amyloid-beta protein 42; UniProt P05067 699-707, looked up, fragment)
competition for labeling of FLAG-Aβ-25-36 by Fen-B or Flurbi-BpB ([1]; competitor 100 μM, FLAG-Aβ-25-36 10 μM): competes | competition of APP-CTF labeling by Fen-B and Flurbi-BpB (APP-CTF): decreases labeling of APP-CTF

NH2-FEGKF-CONH2 [I1]
total amyloid-β amounts [3]: without lowering total amyloid-β amounts | Aβ42 levels [3]: elevated Aβ42 production

O=C(c1ccccc1)c1ccccc1 [benzophenone]
Aβ42 (direction of change) (H4Bri-C99 (CTF-3); 6 hours): increased Aβ42

COc1ccc2cc([C@H](C)C(=O)O)ccc2c1 [naproxen]
competition of Fen-B labeling of C100Flag (APP(C100)-Flag): did not compete
